Test results reported in patent publication US6066628A, “Non-iron metalloporphyrins and methods of use” (Emory University, priority 1998, dated 2000).

Key:
[1] = test system: Y. enterocolitica; assay: Minimal bactericidal concentration; format: cell-based; details: reduces plating efficiency more than 99.9%; minimal exposure to light
[2] = test system: Candida krusei; assay: MIC 80 microdilution, clinical yeast isolates; format: cell-based
[3] = test system: yeasts; assay: Yeast growth inhibition; format: cell-based
[4] = test system: bacteria; format: cell-based
[5] = test system: M. smegmatis; assay: Minimal bactericidal concentration; format: cell-based, Mycobacterium smegmatis; details: reduces plating efficiency more than 99.9%; minimal exposure to light
[6] = test system: Candida pillosus; assay: MIC 80 microdilution, clinical yeast isolates; format: cell-based
[7] = test system: S. aureus; assay: Minimal bactericidal concentration; format: cell-based, Staphylococcus aureus; details: reduces plating efficiency more than 99.9%; minimal exposure to light
How it was run: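 Bacteria exposed to porphyrin derivatives above MIC as in the MIC assay, then plated on LB or LB+Tween 80 agar. MBC taken as the concentration reducing plating efficiency by more than 99.9%; light exposure kept minimal.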

[8] = test system: Candida albicans; assay: MIC 80 microdilution, clinical yeast isolates; format: cell-based
Method: (§1) MICs of Ga-UPI against selected clinical yeast isolates. Growth was
(§2) scored after 24 and 48 hours of incubation.

[9] = test system: Candida glabrata; assay: MIC 80 microdilution, clinical yeast isolates; format: cell-based
Method: as §1, §2

[10] = test system: Cryptococcus neoformans; assay: MIC 80 microdilution, clinical yeast isolates; format: cell-based
Method: as §1, §2

[11] = test system: Candida tropicalis; assay: MIC 80 microdilution, clinical yeast isolates; format: cell-based
Method: as §1, §2

O=C(O)CCC1=C(CC(=O)O)C2=NC1=Cc1c(CC(=O)O)c(CCC(=O)O)c3[n]1[Ga]([Cl])[n]1c(c(CCC(=O)O)c(CC(=O)O)c1=CC1=NC(=C3)C(CC(=O)O)=C1CCC(=O)O)=C2 [Ga-UPI, Ga-uroporphyrin I]
Minimal bactericidal concentration (MBC) [1]: 10 | MIC 80 ([2]; 97-058, 24 hours): 1 µg/mL | MIC 80 ([2]; 97-058, 48 hours): 4 µg/mL | MIC 80 ([2]; 97-059, 24 hours): 2 µg/mL | MIC 80 ([2]; 97-059, 48 hours): 8 µg/mL | MIC 80 ([2]; ATCC-6258, 24 hours): 1 µg/mL | MIC 80 ([2]; ATCC-6258, 48 hours): 2 µg/mL | inhibition of growth of yeast [3]: able to inhibit growth of yeast | antibacterial activity [4]: seriously limited in their antibacterial activities | Minimal bactericidal concentration (MBC) [5]: 10 | MIC 80 ([6]; 97-056, 24 hours): 1 µg/mL | MIC 80 ([6]; 97-056, 48 hours): 2 µg/mL | MIC 80 ([6]; 97-057, 24 hours): 2 µg/mL | MIC 80 ([6]; 97-057, 48 hours): 8 µg/mL | Minimal bactericidal concentration (MBC) [7]: 10 | MIC 80 ([8]; 97-010, 24 hours): 2 µg/mL | MIC 80 ([8]; 97-010, 48 hours): 8 µg/mL | MIC 80 ([8]; 97-012, 24 hours): 2 µg/mL | MIC 80 ([8]; 97-012, 48 hours): 8 µg/mL | MIC 80 ([8]; 97-014, 24 hours): 2 µg/mL | MIC 80 ([8]; 97-014, 48 hours): 8 µg/mL | MIC 80 ([8]; 97-015, 24 hours): 2 µg/mL | MIC 80 ([8]; 97-015, 48 hours): 8 µg/mL | MIC 80 ([8]; 97-031, 24 hours): 2 µg/mL | MIC 80 ([8]; 97-031, 48 hours): 16 µg/mL | MIC 80 ([9]; 97-049, 24 hours): 8 µg/mL | MIC 80 ([9]; 97-049, 48 hours): 32 µg/mL | MIC 80 ([9]; 97-050, 24 hours): 8 µg/mL | MIC 80 ([9]; 97-050, 48 hours): 16 µg/mL | MIC 80 ([9]; 97-051, 24 hours): 8 µg/mL | MIC 80 ([9]; 97-051, 48 hours): 32 µg/mL | MIC 80 ([9]; 97-052, 24 hours): 8 µg/mL | MIC 80 ([9]; 97-052, 48 hours): 32 µg/mL | MIC 80 ([9]; 97-053, 24 hours): 8 µg/mL | MIC 80 ([9]; 97-053, 48 hours): 16 µg/mL | MIC 80 ([10]; 97-044, 24 hours): 16 µg/mL | MIC 80 ([10]; 97-044, 48 hours): 16 µg/mL | MIC 80 ([10]; 97-045, 24 hours): 16 µg/mL | MIC 80 ([10]; 97-045, 48 hours): 32 µg/mL | MIC 80 ([10]; 97-046, 24 hours): 16 µg/mL | MIC 80 ([10]; 97-046, 48 hours): 16 µg/mL | MIC 80 ([10]; 97-047, 24 hours): 8 µg/mL | MIC 80 ([10]; 97-047, 48 hours): 16 µg/mL | MIC 80 ([10]; 97-048, 24 hours): 16 µg/mL | MIC 80 ([10]; 97-048, 48 hours): 16 µg/mL | MIC 80 ([11]; 97-054, 24 hours): 16 µg/mL | MIC 80 ([11]; 97-054, 48 hours): 32 µg/mL | MIC 80 ([11]; 97-055, 24 hours): 8 µg/mL | MIC 80 ([11]; 97-055, 48 hours): 16 µg/mL
